Residues, ends and D or L forms follow the SMILES beside them.
Tested on: Vero-E6 cells
Test: cells
Assay type: cell-based
Details: for activation at 10 µM: Chlorocebus sabaeus, Vero C1008, 24 h, read-out: PL_Result

Structure (SMILES) | activation at 10 µM [%] | further results
CCNC(=O)C[C@@H]1N=C(c2ccc(Cl)cc2)c2cc(OC)ccc2-n2c(C)nnc21 [I-BET-762, reference compound] |  | result_ITMP: 13.27 percent effect
CCN(CC)CC1CCCCN1CC(=O)N1c2ccccc2C(=O)Nc2cccnc21 (centres unmarked) [SPE_A00520476] | -3.51 | 
CC(O)c1cc(C(=O)N[C@@H](C)Cn2ccc(-c3ccc(C#N)c(Cl)c3)n2)n[nH]1 (some centres unmarked) [SPE_A01259528] | -15.4 | 
NC[C@H]1O[C@H](O[C@H]2C(O[C@@H]3O[C@H](CO)[C@@H](O)[C@H]3O)[C@@H](O)[C@H](N)C[C@@H]2N)[C@H](N)[C@@H](O)[C@@H]1O (some centres unmarked) [SPE_A03826781] | -7.3 | 
CCc1ccc(C(=O)C(C)CN2CCCCC2)cc1 (centres unmarked) [SPE_A04252265] | -4.05 | 
CC(C)NCC(O)c1ccc(O)c(O)c1 (centres unmarked) [SPE_A04322457] | -1.28 | 
Cc1nnc(C(C)C)n1C1CC2CCC(C1)N2CC[C@H](NC(=O)C1CCC(F)(F)CC1)c1ccccc1 (some centres unmarked) [SPE_A04352665] | -15.3 | 
CC(=O)O[C@H]1C[C@@]2(C)[C@@H](C[C@@H](O)C3[C@]2(C)CC[C@H]2[C@H](C)[C@H](O)CC[C@]32C)/C1=C(/CCC=C(C)C)C(=O)O (some centres unmarked) [SPE_A06935312] | -11.6 | 
CC(C)CC(NC(=O)C1CCCN1)C(=O)NCC(N)=O (stereo not drawn) [SPE_A09911125] (H-Pro-Leu-Gly-NH2; configuration not given here) | -6.88 | 
Nc1ncnc2c1ncn2C1O[C@H](COP(=O)(O)O)[C@@H](O)[C@H]1O (some centres unmarked) [SPE_A10111329] | -12.1 | 
C[C@@H]1C[C@H]2[C@@H]3CCC4=CC(=O)C=C[C@]4(C)[C@@]3(F)[C@@H](O)C[C@]2(C)[C@@]1(O)C(=O)CO [SPE_A10188456] | -8.72 | 
CCn1ccnc1CC1COc2ccccc2O1 (centres unmarked) [SPE_A10903566] | 2.21 | 
CN1C2CCCC1CC(NC(=O)c1nn(C)c3ccccc13)C2 (centres unmarked) [SPE_A10967948] | 3.5 | 
O=C(O)[C@@H]1C[C@@H](O)CN1 [SPE_A12454076] | -8.44 | 
NC(C(=O)O)c1nnn[nH]1 (centres unmarked) [SPE_A14757586] | -5.28 | 
CC(C)OC(=O)c1cc2c(OCC(O)CNC(C)(C)C)cccc2[nH]1 (centres unmarked) [SPE_A15530910] | 15.8 | 
CN1C(CSCC(F)(F)F)Nc2cc(Cl)c(S(N)(=O)=O)cc2S1(=O)=O (centres unmarked) [SPE_A15739803] | 0.385 | 
CN(C)C(=O)Oc1cc(OC(=O)N(C)C)cc(C(O)CNC(C)(C)C)c1 (centres unmarked) [SPE_A17462676] | -4.78 | 
NC(C(=O)O)c1cc(O)cc(O)c1 (centres unmarked) [SPE_A20589515] | 2.18 | 
O=C(C1CCCCC1)N1CC(=O)N2CCc3ccccc3C2C1 (centres unmarked) [SPE_A21858158] | -0.34 | 
COc1cc([S+](C)[O-])ccc1-c1nc2ncccc2[nH]1 (centres unmarked) [SPE_A22081593] | -4.2 | 

Structure (SMILES) | activation at 10 µM [%] | further results
CCN(CC)CCOC(=O)C(c1ccccc1)C1CCCCC1 (centres unmarked) [SPE_A22267103] | 53.9 | 
NCC(CS(=O)(=O)O)c1ccc(Cl)cc1 (centres unmarked) [SPE_A24122750] | -1.21 | 
CCC(=O)c1ccc(OCC(O)CN2CCN(c3ccccc3)CC2)cc1 (centres unmarked) [SPE_A28958257] | -1.6 | 
CN(C)CCOC(c1ccc(Cl)cc1)c1ccccn1 (centres unmarked) [SPE_A29426959] | -7.35 | 
CCCCCC(=O)O[C@]1(C(C)=O)CCC2C3CCC4=CC(=O)CC[C@]4(C)C3CC[C@@]21C (some centres unmarked) [SPE_A29731977] | -5.02 | 
CC(C)N(CCC(C(N)=O)(c1ccccc1)c1ccccn1)C(C)C (centres unmarked) [SPE_A29734509] | 1.87 | 
NC1CCN(c2cccnc2)C1 (centres unmarked) [SPE_A29844814] | -9.03 | 
CCN1C(=O)NC(c2ccccc2)C1=O (centres unmarked) [SPE_A30205217] | -4.7 | 
CS(=O)(=O)c1ccc(C(O)[C@H](CF)NC(=O)C(Cl)Cl)cc1 (some centres unmarked) [SPE_A30886737] | 3.66 | 
O=C(O)CC1CC(c2ccccc2)=NO1 (centres unmarked) [SPE_A32269193] | -19.4 | 
Clc1ccc(C(Cn2ccnc2)OCc2ccsc2Cl)c(Cl)c1 (centres unmarked) [SPE_A33084557] | 4.51 | 
Cc1cn(C2CC(N=[N+]=[N-])C(CO)O2)c(=O)[nH]c1=O (centres unmarked) [SPE_A33692381] | -1.92 | 
Clc1ccc(C(Cn2ccnc2)OCc2ccc(Sc3ccccc3)cc2)c(Cl)c1 (centres unmarked) [SPE_A33697453] | 17.3 | 
CCCCC1C(=O)N(c2ccccc2)N(c2ccc(O)cc2)C1=O (centres unmarked) [SPE_A33749298] | 2.66 | 
CC(CCc1ccccc1)NC(C)C(O)c1ccc(O)cc1 (centres unmarked) [SPE_A36267905] | -4.99 | 
CC(C)(C)NCC(O)c1ccccc1Cl (centres unmarked) [SPE_A37441042] | 4.82 | 
CCC1(c2ncc[nH]2)Cc2ccccc2O1 (centres unmarked) [SPE_A38747044] | 2.93 | 
CC(C)(C)NCC(O)COc1cccc2[nH]c(=O)[nH]c12 (centres unmarked) [SPE_A40084411] | 1.76 | 
COc1cc2c(cc1OC)[C@@]13CCN4CC5=CCOC6CC(=O)N2C1[C@H]6[C@H]5C[C@H]43 (some centres unmarked) [SPE_A41995253] | 1.19 | 
CC(C)(C)NCC(O)COc1cccc2c1CCC(=O)N2 (centres unmarked) [SPE_A42167015] | 2.81 | 
O=C(O)COCCN1CCN(C(c2ccccc2)c2ccc(Cl)cc2)CC1 (centres unmarked) [SPE_A42571354] | -3.1 | 

Structure (SMILES) | activation at 10 µM [%] | further results
CC(C)CCCC(C)[C@H]1CCC2C3CC=C4C[C@@H](O)CC[C@]4(C)C3CC[C@@]21C (some centres unmarked) [SPE_A42883684] | -4.75 | 
C=CC(C)(O)CCC=C(C)C (centres unmarked) [SPE_A43082461] | -7.7 | 
O=C(O)CC(S)C(=O)O (centres unmarked) [SPE_A43435802] | 5.6 | 
CC(CN(C)C)C(C)(O)Cc1ccc(Cl)cc1 (centres unmarked) [SPE_A43809092] | -8.69 | 
CCOc1ccccc1O[C@@H](c1ccccc1)[C@@H]1CNCCO1.CCOc1ccccc1O[C@H](c1ccccc1)[C@H]1CNCCO1 [SPE_A43974499] |  | PL_Result: 14.61
C[N+]12CCC(CC1)C(OC(=O)C(O)(c1ccccc1)c1ccccc1)C2 (centres unmarked) [SPE_A46066006] | 2.01 | 
CNC1CCCN(c2c(F)cc3c(=O)c(C(=O)O)cn(C4CC4)c3c2OC)C1 (centres unmarked) [SPE_A47790386] | 3.04 | 
CCc1ccc(CCOc2ccc(CC3SC(=O)NC3=O)cc2)nc1 (centres unmarked) [SPE_A48430263] | -1.25 | 
CC(CNS(=O)(=O)C(C)C)c1ccc(-c2ccc(C#N)cc2)cc1 (centres unmarked) [SPE_A50062753] | -2.67 | 
COc1ccc(COc2cc3oc(=O)c4cc(C(C)O)ccc4c3cc2OC)cc1 (centres unmarked) [SPE_A50998626] | -7.77 | 
NCC1CC(=O)N(Cc2ccccc2)C1 (centres unmarked) [SPE_A51355958] | 2 | 
OC(CN1CCN(c2cccc(Cl)c2)CC1)C(c1ccccc1)c1ccccc1 (centres unmarked) [SPE_A51829654] | -10.3 | 
CCC[N+]12C3C[C@H](C4C(O)[C@]5(C[C@@H]41)c1ccccc1N(C)[C@@H]35)[C@H](CC)[C@H]2O (some centres unmarked) [SPE_A53539450] | -3.5 | 
CC1(C)S[C@@H]2[C@H](NC(=O)C(C(=O)O)c3ccsc3)C(=O)N2[C@H]1C(=O)O (some centres unmarked) [SPE_A55051145] | -6.58 | 
C=C[C@@]1(C)CC(=O)[C@@]2(O)[C@](C)(O1)[C@@H](OC(C)=O)[C@@H](O)C1C(C)(C)CC[C@H](O)[C@@]12C (some centres unmarked) [SPE_A55416093] | -12.3 | 
COc1ccc2c(c1)nc([S+]([O-])Cc1ncc(C)c(OC)c1C)[n]2[Mg][n]1c([S+]([O-])Cc2ncc(C)c(OC)c2C)nc2cc(OC)ccc21 (centres unmarked) [SPE_A56892734] | -9.5 | 
Nc1ncnc2c1ncn2C1CCCO1 (centres unmarked) [SPE_A56987319] | 0.343 | 
C[N+]1(C)CCc2cc3c(cc2[C@H]1[C@@H]1OC(=O)c2c1ccc1c2OCO1)OCO3 [SPE_A57798559] | -11.7 | 
O=C(O)C(Cc1ccccc1)NCc1ccc(Cl)cc1 (centres unmarked) [SPE_A57806482] | 2.25 | 
CCC1NC(=O)c2cc(S(N)(=O)=O)c(Cl)cc2N1 (centres unmarked) [SPE_A59303141] | -4.81 | 
CCCN(C/C=C/I)C1CCc2cccc(O)c2C1 (centres unmarked) [SPE_A60594020] | 6.75 | 

Structure (SMILES) | activation at 10 µM [%] | further results
O=C(O)C1CN(CCCP(=O)(O)O)CCN1 (centres unmarked) [SPE_A60832661] | -0.285 | 
O=C1Nc2cc(Cl)c(Cl)cc2N2CCNCC12 (centres unmarked) [SPE_A62021152] | -10.8 | 
OC(c1ccccc1)C1CCN(CCc2ccccc2)CC1 (centres unmarked) [SPE_A62057054] | 3.01 | 
CC(O)(C(=O)Nc1ccc(S(=O)(=O)c2ccccc2)cc1)C(F)(F)F (centres unmarked) [SPE_A62209527] | -3.22 | 
CC(CN)CC(=O)O (centres unmarked) [SPE_A62890442] | -10.6 | 
OCCN1C[C@@H](O)[C@@H](O)C(O)C1CO (some centres unmarked) [SPE_A63310107] | -7.51 | 
O=C(NCc1ccc(F)cc1)N1CCN2C(=O)OC(c3ccccc3)(c3ccccc3)C2C1 (centres unmarked) [SPE_A63344375] | -2.64 | 
CC(C)(C)C(=O)OCOC(=O)C1N2C(=O)CC2S(=O)(=O)C1(C)C (centres unmarked) [SPE_A63431791] | -1.74 | 
O=c1[nH]c(=O)n([C@H]2C[C@H](O)[C@@H](CO)O2)cc1/C=C/Br [SPE_A63675168] | -6.33 | 
CC1(C)O[C@@H]2CC3C4C[C@H](F)C5=CC(=O)C=CC5(C)C4C(O)CC3(C)[C@]2(C(=O)CO)O1 (some centres unmarked) [SPE_A65449987] | 6.74 | 
COc1cc(N)c(Cl)cc1C(=O)NC1CN2CCC1CC2 (centres unmarked) [SPE_A65615053] | -14.1 | 
CC(=O)OCC(=O)[C@@]1(O)CCC2C3CCC4=CC(=O)CC[C@]4(C)C3[C@@H](O)C[C@@]21C (some centres unmarked) [SPE_A65767837] | -13.7 | 
CC(CCCCC(=O)Nc1ccc(C(F)(F)F)cc1)NCCc1c[nH]cn1 (centres unmarked) [SPE_A66435872] | 38.2 | 
CC1CCN(C(c2ccc(F)cc2)c2ccc(C(C)C(=O)O)cc2-c2ccc(C(F)(F)F)cc2)CC1 (centres unmarked) [SPE_A66521565] | -6.16 | 
COc1ccc(OC)c(C2C(C#N)=C(N)Oc3[nH]nc(-c4ccc5ccccc5c4)c32)c1 (centres unmarked) [SPE_A67036568] | -6.11 | 
CCC(N)C(O)c1ccc(O)c(O)c1 (centres unmarked) [SPE_A68509429] | -8.71 | 
CN1c2ccccc2C(=O)N2CCc3c([nH]c4ccccc34)C21 (centres unmarked) [SPE_A68631409] | -12.1 | 
Clc1ccc(C23CNCC2C3)cc1Cl (centres unmarked) [SPE_A68942014] | -4.9 | 
CCCCCCCCCCCCCCCCCC(=O)OCC(O)[C@H]1OC[C@H](O)[C@H]1O (some centres unmarked) [SPE_A70197423] | -4.54 | 
NC(Cc1c[nH]c2ccc(O)cc12)C(=O)O (centres unmarked) [SPE_A73930134] | -6.97 | 

Source: article PMC13083723 (Patterns, 2026)
